Paper PMC10184535, “An HR2-Mimicking Sulfonyl-γ-AApeptide Is a Potent Pan-coronavirus Fusion Inhibitor with Strong Blood–Brain Barrier Permeability, Long Half-Life, and Promising Oral Bioavailability” (ACS Central Science, 2023)
Read-outs that look alike come from different tables or passages of the source.

What was measured:
[1] = system: pseudotyped bat SARSr-CoV WIV1; conditions: 48 h
SARS-CoV-2 PsV [2] = conditions: previously reported EK1 peptide; read-out: IC50, SARS-CoV-2 PsV infection, previously reported; cited from earlier work
pseudotyped MERS-CoV = conditions: 48 h
pseudotyped SARS-CoV = conditions: 48 h
pseudotyped HCoV-NL63 = conditions: 48 h
HR1 peptide (911–987) = target: T1, HR1 peptide (911–987) (Severe acute respiratory syndrome coronavirus 2, UniProt P0DTC2); experiment: Fluorescence polarization binding to HR1 peptide; design: species or system SARS-CoV-2
T1 construct: purchased NovoPep Limited

SARS-CoV-2 PsV [3] = conditions: 48 h
PAMPA-GIT = conditions: at three different pH values

Row | Structure (SMILES) | Kd (HR1 peptide (911–987)) [nM] | IC50 (SARS-CoV-2 PsV [3]) [nM] | further results
1 | CC[C@H](C)[C@H](NC(=O)[C@H](C)NC(=O)[C@H](CCC(=O)O)NC(=O)[C@H](CCC(=O)O)NC(=O)[C@H](CC(C)C)NC(=O)[C@H](CCCCN)NC(=O)[C@H](CCCCN)NC(=O)[C@H](CCSC)NC(=O)[C@H](CCC(=O)O)NC(=O)[C@H](Cc1ccc(O)cc1)NC(=O)[C@H](CCC(=O)O)NC(=O)[C@H](CC(C)C)NC(=O)[C@H](CC(=O)O)NC(=O)[C@H](CC(C)C)NC(=O)[C@H](Cc1ccccc1)NC(=O)[C@@H](NC(=O)[C@@H](NC(=O)[C@H](CC(N)=O)NC(=O)[C@@H](NC(=O)[C@H](CCC(N)=O)NC(=O)[C@H](CC(=O)O)NC(=O)[C@H](CC(C)C)NC(=O)[C@@H](N)CO)[C@@H](C)CC)C(C)C)[C@@H](C)O)C(=O)N[C@@H](CCCCN)C(=O)N[C@@H](CCCCN)C(=O)N[C@@H](CC(C)C)C(=O)N[C@@H](CCC(=O)O)C(=O)N[C@@H](CCC(=O)O)C(=O)N[C@@H](CO)C(=O)N[C@@H](Cc1ccc(O)cc1)C(=O)N[C@H](C(=O)N[C@@H](CC(=O)O)C(=O)N[C@@H](CC(C)C)C(=O)N[C@@H](CCCCN)C(=O)N[C@@H](CCC(=O)O)C(=O)N[C@@H](CC(C)C)C(=O)O)[C@@H](C)CC [EK1] |  |  | IC50 [1]: 19000 nM; IC50 (SARS-CoV-2 PsV [2]): 2380 nM; IC50 (pseudotyped MERS-CoV): 210 nM; IC50 (pseudotyped SARS-CoV): 1210 nM; IC50 (pseudotyped HCoV-NL63): 4170 nM
2 | CC(=O)N[C@H](CC(C)C)CN(CC(=O)N[C@H](CCCCN)CN(CC(=O)N[C@H](CC(C)C)CN(CC(=O)N[C@H](CCC(=O)O)CN(CC(=O)N[C@H](CC(C)C)CN(CC(=O)N[C@H](CCC(=O)O)CN(CC(=O)N[C@H](C)CN(CC(=O)N[C@H](CCCCN)CN(CC(=O)N[C@H](C)CN(CC(=O)N[C@H](CCC(=O)O)CN(CC(=O)N[C@H](CC(C)C)CN(CC(N)=O)S(=O)(=O)CC(C)C)S(C)(=O)=O)S(=O)(=O)CCN)S(C)(=O)=O)S(=O)(=O)CCN)S(=O)(=O)CC(C)C)S(=O)(=O)CCN)S(=O)(=O)CCN)S(C)(=O)=O)S(=O)(=O)CCN)S(=O)(=O)CCN [XY1] | 287 |  | 
3 | CC(=O)N[C@H](CC(C)C)CN(CC(=O)N[C@H](CCCCN)CN(CC(=O)N[C@H](CC(C)C)CN(CC(=O)N[C@H](CCC(=O)O)CN(CC(=O)N[C@H](CC(C)C)CN(CC(=O)N[C@H](CCC(=O)O)CN(CC(=O)N[C@H](C)CN(CC(=O)N[C@H](CCCCN)CN(CC(=O)N[C@H](C)CN(CC(=O)N[C@H](CCC(=O)O)CN(CC(=O)N[C@H](CC(C)C)CN(CC(N)=O)S(=O)(=O)CC(C)C)S(=O)(=O)CC(C)C)S(=O)(=O)CCN)S(C)(=O)=O)S(=O)(=O)CCN)S(=O)(=O)CC(C)C)S(=O)(=O)CCN)S(=O)(=O)CCN)S(C)(=O)=O)S(=O)(=O)CCN)S(=O)(=O)CCN [XY2] | 329 |  | 
4 | CC(=O)N[C@H](CC(C)C)CN(CC(=O)N[C@H](CCCCN)CN(CC(=O)N[C@H](CC(C)C)CN(CC(=O)N[C@H](CCC(=O)O)CN(CC(=O)N[C@H](CC(C)C)CN(CC(=O)N[C@H](CCC(=O)O)CN(CC(=O)N[C@H](C)CN(CC(=O)N[C@H](CCCCN)CN(CC(=O)N[C@H](C)CN(CC(=O)N[C@H](CCC(=O)O)CN(CC(=O)N[C@H](CC(C)C)CN(CC(N)=O)S(=O)(=O)CC(C)C)S(C)(=O)=O)S(=O)(=O)CCN)S(=O)(=O)CC(C)C)S(=O)(=O)CCN)S(=O)(=O)CC(C)C)S(=O)(=O)CCN)S(=O)(=O)CCN)S(C)(=O)=O)S(=O)(=O)CCN)S(=O)(=O)CCN [XY3] | 426 |  | 
5 | CC(=O)N[C@H](CC(C)C)CN(CC(=O)N[C@H](CCCCN)CN(CC(=O)N[C@H](CC(C)C)CN(CC(=O)N[C@H](CCC(=O)O)CN(CC(=O)N[C@H](CC(C)C)CN(CC(=O)N[C@H](CCC(=O)O)CN(CC(=O)N[C@H](C)CN(CC(=O)N[C@H](CCCCN)CN(CC(=O)N[C@H](C)CN(CC(=O)N[C@H](CCC(=O)O)CN(CC(=O)N[C@H](CC(C)C)CN(CC(=O)NCCCCCC(=O)NCCCCCC(=O)N[C@@H](CSCC(=O)OCCOCCOCCOCCO[C@H]1CC[C@@]2(C)C(=CC[C@H]3[C@@H]4CC[C@H]([C@H](C)CCCC(C)C)[C@@]4(C)CC[C@@H]32)C1)C(N)=O)S(=O)(=O)CC(C)C)S(C)(=O)=O)S(=O)(=O)CCN)S(C)(=O)=O)S(=O)(=O)CCN)S(=O)(=O)CC(C)C)S(=O)(=O)CCN)S(=O)(=O)CCN)S(C)(=O)=O)S(=O)(=O)CCN)S(=O)(=O)CC(C)C [XY4-C1] |  | 29800 | 
6 | CC(=O)N[C@H](CC(C)C)CN(CC(=O)N[C@H](CCCCN)CN(CC(=O)N[C@H](CC(C)C)CN(CC(=O)N[C@H](CCC(=O)O)CN(CC(=O)N[C@H](CC(C)C)CN(CC(=O)N[C@H](CCC(=O)O)CN(CC(=O)N[C@H](C)CN(CC(=O)N[C@H](CCCCN)CN(CC(=O)N[C@H](C)CN(CC(=O)N[C@H](CCC(=O)O)CN(CC(=O)N[C@H](CC(C)C)CN(CC(=O)NCCCCCC(=O)NCCCCCC(=O)N[C@@H](CSCC(=O)OCCOCCOCCOCCOCCOCCOCCOCCO[C@H]1CC[C@@]2(C)C(=CC[C@H]3[C@@H]4CC[C@H]([C@H](C)CCCC(C)C)[C@@]4(C)CC[C@@H]32)C1)C(N)=O)S(=O)(=O)CC(C)C)S(C)(=O)=O)S(=O)(=O)CCN)S(C)(=O)=O)S(=O)(=O)CCN)S(=O)(=O)CC(C)C)S(=O)(=O)CCN)S(=O)(=O)CCN)S(C)(=O)=O)S(=O)(=O)CCN)S(=O)(=O)CC(C)C [XY4-C2] |  | 2850 | 
7 | CC(=O)N[C@H](CC(C)C)CN(CC(=O)N[C@H](CCCCN)CN(CC(=O)N[C@H](CC(C)C)CN(CC(=O)N[C@H](CCC(=O)O)CN(CC(=O)N[C@H](CC(C)C)CN(CC(=O)N[C@H](CCC(=O)O)CN(CC(=O)N[C@H](C)CN(CC(=O)N[C@H](CCCCN)CN(CC(=O)N[C@H](C)CN(CC(=O)N[C@H](CCC(=O)O)CN(CC(=O)N[C@H](CC(C)C)CN(CC(=O)NCCCCCC(=O)NCCCCCC(=O)N[C@@H](CSCC(=O)OCCOCCOCCOCCOCCOCCOCCOCCOCCOCCOCCOCCO[C@H]1CC[C@@]2(C)C(=CC[C@H]3[C@@H]4CC[C@H]([C@H](C)CCCC(C)C)[C@@]4(C)CC[C@@H]32)C1)C(N)=O)S(=O)(=O)CC(C)C)S(C)(=O)=O)S(=O)(=O)CCN)S(C)(=O)=O)S(=O)(=O)CCN)S(=O)(=O)CC(C)C)S(=O)(=O)CCN)S(=O)(=O)CCN)S(C)(=O)=O)S(=O)(=O)CCN)S(=O)(=O)CC(C)C [XY4-C3] |  | 920 | 
8 | CC(=O)N[C@H](CC(C)C)CN(CC(=O)N[C@H](CCCCN)CN(CC(=O)N[C@H](CC(C)C)CN(CC(=O)N[C@H](CCC(=O)O)CN(CC(=O)N[C@H](CC(C)C)CN(CC(=O)N[C@H](CCC(=O)O)CN(CC(=O)N[C@H](C)CN(CC(=O)N[C@H](CCCCN)CN(CC(=O)N[C@H](C)CN(CC(=O)N[C@H](CCC(=O)O)CN(CC(=O)N[C@H](CC(C)C)CN(CC(=O)N[C@H](CO)CN(CC(=O)N[C@H](CO)CN(CC(=O)N[C@@H](CSCC(=O)OCCOCCOCCOCCOCCOCCOCCOCCO[C@H]1CC[C@@]2(C)C(=CC[C@H]3[C@@H]4CC[C@H]([C@H](C)CCCC(C)C)[C@@]4(C)CC[C@@H]32)C1)C(N)=O)S(C)(=O)=O)S(C)(=O)=O)S(=O)(=O)CC(C)C)S(C)(=O)=O)S(=O)(=O)CCN)S(C)(=O)=O)S(=O)(=O)CCN)S(=O)(=O)CC(C)C)S(=O)(=O)CCN)S(=O)(=O)CCN)S(C)(=O)=O)S(=O)(=O)CCN)S(=O)(=O)CC(C)C [XY4-C5] |  | 4050 | 
9 | CC(=O)N[C@H](CC(C)C)CN(CC(=O)N[C@H](CCCCN)CN(CC(=O)N[C@H](CC(C)C)CN(CC(=O)N[C@H](CCC(=O)O)CN(CC(=O)N[C@H](CC(C)C)CN(CC(=O)N[C@H](CCC(=O)O)CN(CC(=O)N[C@H](C)CN(CC(=O)N[C@H](CCCCN)CN(CC(=O)N[C@H](C)CN(CC(=O)N[C@H](CCC(=O)O)CN(CC(=O)N[C@H](CC(C)C)CN(CC(=O)N[C@H](CO)CN(CC(=O)N[C@H](CO)CN(CC(=O)N[C@@H](CSCC(=O)OCCOCCOCCOCCOCCOCCOCCOCCOCCOCCOCCOCCO[C@H]1CC[C@@]2(C)C(=CC[C@H]3[C@@H]4CC[C@H]([C@H](C)CCCC(C)C)[C@@]4(C)CC[C@@H]32)C1)C(N)=O)S(C)(=O)=O)S(C)(=O)=O)S(=O)(=O)CC(C)C)S(C)(=O)=O)S(=O)(=O)CCN)S(C)(=O)=O)S(=O)(=O)CCN)S(=O)(=O)CC(C)C)S(=O)(=O)CCN)S(=O)(=O)CCN)S(C)(=O)=O)S(=O)(=O)CCN)S(=O)(=O)CC(C)C [XY4-C6] |  | 2630 | 
10 | CC(=O)N[C@H](CC(C)C)CN(CC(=O)N[C@H](CCCCN)CN(CC(=O)N[C@H](CC(C)C)CN(CC(=O)N[C@H](CCC(=O)O)CN(CC(=O)N[C@H](CC(C)C)CN(CC(=O)N[C@H](CCC(=O)O)CN(CC(=O)N[C@H](C)CN(CC(=O)N[C@H](CCCCN)CN(CC(=O)N[C@H](C)CN(CC(=O)N[C@H](CCC(=O)O)CN(CC(=O)N[C@H](CC(C)C)CN(CC(N)=O)S(=O)(=O)CC(C)C)S(C)(=O)=O)S(=O)(=O)CCN)S(C)(=O)=O)S(=O)(=O)CCN)S(=O)(=O)CC(C)C)S(=O)(=O)CCN)S(=O)(=O)CCN)S(C)(=O)=O)S(=O)(=O)CCN)S(=O)(=O)CC(C)C [XY4] | 132 |  | 
11 | Cc1cc(=O)n(-c2ccccc2)n1C [antipyrine] |  |  | Papp at 30 min, 200 μM (PAMPA-GIT; 200 μM, negative control): < 6 ×10⁻⁶ cm/s
12 | NC(=O)N1c2ccccc2C=Cc2ccccc21 [carbamazepine] |  |  | Papp at 30 min, 50 μM (PAMPA-GIT; 50 μM, positive control): ~150 ×10⁻⁶ cm/s
